Experimental data published in ChEMBL document CHEMBL5724696, “Autophagy assay results for EUbOPEN Chemogenomics Library” (2024).
Several values for one entry are separate records, joined by “and”; a condition that tells them apart may be missing. Identical values can stand only once.

Legend:
Assay type in all cases: functional, Homo sapiens
U2OS [1] = experiment: (§1) Here: values are normalized to the negative (DMSO; defined as 0% autophagy induction) and positive (250nM Torin1; mTOR inhibitor; defined as maximal inducer of autophagy = 100%) control compounds and represented as % of autophagy induction. […] The impact of autophagy induction on cells is complex and depends on the affected target. As such, the magnitude of a phenotype may not be equally mirrored in the %-value of autophagy induction and vice versa. The dynamics of the induction may indicate the mode of activation: e.g. activation via phosphorylation or a signaling cascade may occur fast, while activation via transcription factors may take considerably longer. […] Of note, treatment concentrations may be sub-optimal for specific compounds, leading to false negative annotations.; conditions: Culturing Media DMEM, 1 % Penicillin/Streptomycin, 10% Fetal bovin serum Add-On: No, Screening Media Control DMEM, Screening Media Samples DMEM
TERT-RPE1 = experiment: as §1; conditions: Culturing Media DMEM/F12 (1:1), 1 % Penicillin/Streptomycin, 10% Fetal bovin serum Add-On: No, Screening Media Control DMEM/F12 (1:1), Screening Media Samples DMEM/F12 (1:1)
U2OS [2] = experiment: as §1; conditions: Culturing Media DMEM, 1 % Penicillin/Streptomycin, 10% Fetal bovin serum Add-On: No, Screening Media Control DMEM, Screening Media Samples DMEM; remark: listed apart in the source
[3] = Compound Concentration 0.5 uM, Timepoint 12 hours
[4] = Compound Concentration 0.5 uM, Timepoint 24 hours
[5] = Compound Concentration 0.5 uM, Timepoint 36 hours
[6] = Compound Concentration 0.5 uM, Timepoint 60 hours
[7] = Compound Concentration 2 uM, Timepoint 12 hours
[8] = Compound Concentration 2 uM, Timepoint 24 hours
[9] = Compound Concentration 2 uM, Timepoint 36 hours
[10] = Compound Concentration 2 uM, Timepoint 60 hours
[11] = Compound Concentration 10 uM, Timepoint 12 hours
[12] = Compound Concentration 10 uM, Timepoint 24 hours
[13] = Compound Concentration 10 uM, Timepoint 36 hours
[14] = Compound Concentration 10 uM, Timepoint 60 hours

Row | Compound | autophagy induction (U2OS [1]; [3]) | autophagy induction (U2OS [1]; [4]) | autophagy induction (U2OS [1]; [5]) | autophagy induction (U2OS [1]; [6]) | autophagy induction (U2OS [1]; [7]) | autophagy induction (U2OS [1]; [8]) | autophagy induction (U2OS [1]; [9]) | autophagy induction (U2OS [1]; [10]) | autophagy induction (U2OS [1]; [11]) | autophagy induction (U2OS [1]; [12]) | autophagy induction (U2OS [1]; [13]) | autophagy induction (U2OS [1]; [14]) | autophagy induction (U2OS [2]; [3]) | autophagy induction (U2OS [2]; [4]) | autophagy induction (U2OS [2]; [5]) | autophagy induction (U2OS [2]; [6]) | autophagy induction (U2OS [2]; [7]) | autophagy induction (U2OS [2]; [8]) | autophagy induction (U2OS [2]; [9]) | autophagy induction (U2OS [2]; [10]) | further results
1 | C[C@H](Cc1cc2c(c(C(N)=O)c1)N(CCCO)CC2)NCCOc1ccccc1OCC(F)(F)F [SILODOSIN] | -11.9601% | -4.037% | -2.198% | -1.72% | -7.096% | -4.088% | -2.301% | -1.816% | 0.9061% | 0.8821% | -0.4631% | -2.909% | 8.749% | -4.272% | -5.327% | -13.2389% | -4.216% | 0.5128% | -1.271% | -7.276% | autophagy induction (TERT-RPE1; [3]): -3.093%; autophagy induction (TERT-RPE1; [4]): -6.268%; autophagy induction (TERT-RPE1; [5]): -8.97%; autophagy induction (TERT-RPE1; [6]): -13.239%; autophagy induction (TERT-RPE1; [7]): -3.63%; autophagy induction (TERT-RPE1; [8]): -5.97%; autophagy induction (TERT-RPE1; [9]): -7.85%; autophagy induction (TERT-RPE1; [10]): -11.8179%; autophagy induction (TERT-RPE1; [11]): -0.1283%; autophagy induction (TERT-RPE1; [12]): -0.9694%; autophagy induction (TERT-RPE1; [13]): 1.604%; autophagy induction (TERT-RPE1; [14]): -1.313%; autophagy induction (U2OS [2]; [11]): 1.6%; autophagy induction (U2OS [2]; [12]): 6.633%; autophagy induction (U2OS [2]; [13]): 3.208%; autophagy induction (U2OS [2]; [14]): 0.1621%
2 | CCCSc1nc(N[C@@H]2C[C@H]2c2ccc(F)c(F)c2)c2nnn([C@@H]3C[C@H](OCCO)[C@@H](O)[C@H]3O)c2n1 [TICAGRELOR] | -3.602% | -3.07% | -60.4394% | -2.316% | -5.583% | -3.174% | -60.5106% | -3.163% | -2.648% | 1.759% | -58.5177% | -2.994% | -9.844% | -12.5107% | -15.2375% | -18.2861% | 2.324% | -7.302% | -3.06% | -7.4162% | autophagy induction (TERT-RPE1; Compound Concentration 0.5 uM, Timepoint 12 hours, 12 h, 0.5 µM): -0.3223% and -0.8015%; autophagy induction (TERT-RPE1; Compound Concentration 0.5 uM, Timepoint 24 hours, 24 h, 0.5 µM): 2.932% and -1.64%; autophagy induction (TERT-RPE1; Compound Concentration 0.5 uM, Timepoint 36 hours, 36 h, 0.5 µM): 3.182% and -0.1292%; autophagy induction (TERT-RPE1; Compound Concentration 0.5 uM, Timepoint 60 hours, 60 h, 0.5 µM): 6.614% and -2.465%; autophagy induction (TERT-RPE1; Compound Concentration 2 uM, Timepoint 12 hours, 12 h, 2 µM): -2.164% and 3.738%; autophagy induction (TERT-RPE1; Compound Concentration 2 uM, Timepoint 24 hours, 24 h, 2 µM): 2.13% and 2.219%; autophagy induction (TERT-RPE1; Compound Concentration 2 uM, Timepoint 36 hours, 36 h, 2 µM): 3.83% and 3.863%; autophagy induction (TERT-RPE1; Compound Concentration 2 uM, Timepoint 60 hours, 60 h, 2 µM): 10.3636% and 4.688%; autophagy induction (TERT-RPE1; Compound Concentration 10 uM, Timepoint 12 hours, 12 h, 10 µM): 2.799% and 5.117%; autophagy induction (TERT-RPE1; Compound Concentration 10 uM, Timepoint 24 hours, 24 h, 10 µM): 8.7588% and 7.492%; autophagy induction (TERT-RPE1; Compound Concentration 10 uM, Timepoint 36 hours, 36 h, 10 µM): 16.5266% and 7.688%; autophagy induction (U2OS [2]; [11]): -4.369%; autophagy induction (U2OS [2]; [12]): -2.6496%; autophagy induction (U2OS [2]; [13]): -0.7195%; autophagy induction (U2OS [2]; [14]): 1.979%
